Test results taken from EP1801112A1, “Bicyclic pyrimidines and bicyclic 3,4-dihydropyrimidines as inhibitors of cellular proliferation” (Warner-Lambert Company LLC, priority 1998, dated 1999).
Read-outs that look alike come from different tables or passages of the source.

Key:
Format in all cases: biochemical
[1] = target: cdk4/D (Homo sapiens, UniProt P11802); assay: Cyclin-Dependent Kinase 4 (cdk4) Assay
Description: A typical assay, for instance, measures inhibitory activity against the cyclin D dependent kinase 4 enzyme (cdk4/D). […] The cdk4 assay was carried out as follows.
Cyclin-Dependent Kinase 4 (cdk4) Assay
Enzyme assays for IC50 determinations (Tables 1 and 2) and kinetic evaluation were performed in 96 well filter plates (Millipore MADVN6550). The total volume was 0.1 mL containing a final concentration of 20 mM TRIS (tris[hydroxymethyl]aminomethane), at pH 7.4, 50 mM NaCl, 1 mM dithiothreitol, 10 mM MgCl2, 25 µM ATP containing 0.25 µCi of [^32P]ATP, 20 ng of cdk4, 1 µg of retinoblastoma, and appropriate dilutions of a compound of the present invention. All components except the ATP were added to the wells, and the plate was placed on a plate mixer for 2 minutes. The reaction was started by adding [^32P]ATP and the plate was incubated at 25°C for 15 minutes. The reaction was terminated by addition of 0.1 mL of 20% trichloroacetic acid (TCA). The plate was kept at 4°C for at least 1 hour to allow the substrate to precipitate. The wells were then washed five times with 0.2 mL of 10% TCA and ^32P incorporation was determined with a beta plate counter (Wallac Inc., Gaithersburg, MD).

[2] = target: T1, FGF-1 (flg) receptor tyrosine kinase (Homo sapiens, UniProt P11362); assay: FGF Receptor Tyrosine Kinase Assay; settings: glutamate-tyrosine co-polymer substrate, 50 µM ATP
T1 construct: amplify a fragment of DNA that codes for the intracellular tyrosine kinase domain; made in house; host or cells: SF9 insect cells (baculovirus); crude cell lysate used
T1 sequence (P11362 478-767 limits assumed): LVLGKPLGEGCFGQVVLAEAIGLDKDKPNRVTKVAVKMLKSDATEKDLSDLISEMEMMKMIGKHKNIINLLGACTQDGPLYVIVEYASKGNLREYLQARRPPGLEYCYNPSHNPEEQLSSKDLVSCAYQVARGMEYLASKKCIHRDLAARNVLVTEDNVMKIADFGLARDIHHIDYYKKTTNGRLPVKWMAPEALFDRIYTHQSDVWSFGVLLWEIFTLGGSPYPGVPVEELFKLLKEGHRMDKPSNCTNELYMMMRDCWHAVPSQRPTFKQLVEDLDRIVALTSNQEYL
Description: PDGF and FGF Receptor Tyrosine Kinase Assays
PCR primers were designed to amplify a fragment of DNA that codes for the intracellular tyrosine kinase domain. The fragment was inserted into a baculovirus vector, cotransfected with AcMNPV DNA, and the recombinant virus isolated. SF9 insect cells were infected with the virus to overexpress the protein, and the cell lysate was used for the assay. Assays were performed in 96-well plates (100 µL/incubation/well), and conditions were optimized to measure the incorporation of ^32P from γ^32P-ATP into a glutamate-tyrosine co-polymer substrate. Briefly, to each well was added 82.5 µL of incubation buffer containing 25 mM Hepes (pH 7.0), 150 mM NaCl, 0.1% Triton X-100, 0.2 mM PMSF, 0.2 mM Na3VO4, 10 mM MnCl2, and 750 µg/mL of Poly (4:1) glutamate-tyrosine followed by 2.5 µL of inhibitor and 5 µL of enzyme lysate (7.5 µg/µL FGF-TK or 6.0 µg/µL PDGF-TK) to initiate the reaction. […] The reaction was terminated by the addition of 100 µL of 30% trichloroacetic acid (TCA) containing 20 mM sodium pyrophosphate and precipitation of material onto glass fiber mats (Wallac). […] Nonspecific activity was defined as radioactivity retained on the filters following incubation of samples with buffer alone (no enzyme). Specific enzymatic activity (enzyme plus buffer) was defined as total activity minus nonspecific activity. […]

[3] = target: cdk2/cyclinA (Homo sapiens, UniProt P24941); assay: Cyclin-Dependent Kinase Assay cdk2/cyclinA
Description: (§1) Cyclin-Dependent Kinase Assays (cdk2/cyclinE, cdk2/cyclinA, cdc2/cyclinB)
(§2) All components except the ATP were added to the wells, and the plate was placed on a plate mixer for 2 minutes. The reaction was begun by addition of [^32P]ATP, and the plate was incubated at 25°C for 15 minutes. The reaction was terminated by addition of 0.1 mL of 20% TCA. The plate was kept at 4°C for at least 1 hour to allow the substrate to precipitate. The wells were then washed five times with 0.2 mL of 10% TCA and ^32P incorporation determined with a beta plate counter (Wallac Inc., Gaithersburg, MD).

[4] = target: cdc2/cyclinB (Homo sapiens, UniProt P06493); assay: Cyclin-Dependent Kinase Assay cdc2/cyclinB
Sequence of cdc2/cyclinB (P06493 whole entry): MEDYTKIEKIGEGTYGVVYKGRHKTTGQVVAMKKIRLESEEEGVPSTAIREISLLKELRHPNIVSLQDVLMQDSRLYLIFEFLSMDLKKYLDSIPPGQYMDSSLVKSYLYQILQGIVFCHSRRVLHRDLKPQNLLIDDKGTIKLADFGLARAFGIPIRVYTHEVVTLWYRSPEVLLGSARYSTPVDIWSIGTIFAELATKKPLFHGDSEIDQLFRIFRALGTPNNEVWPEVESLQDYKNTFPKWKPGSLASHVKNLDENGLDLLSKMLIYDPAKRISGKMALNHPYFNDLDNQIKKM
Sequence of cdc2/cyclinB (P14635 whole entry, further chain): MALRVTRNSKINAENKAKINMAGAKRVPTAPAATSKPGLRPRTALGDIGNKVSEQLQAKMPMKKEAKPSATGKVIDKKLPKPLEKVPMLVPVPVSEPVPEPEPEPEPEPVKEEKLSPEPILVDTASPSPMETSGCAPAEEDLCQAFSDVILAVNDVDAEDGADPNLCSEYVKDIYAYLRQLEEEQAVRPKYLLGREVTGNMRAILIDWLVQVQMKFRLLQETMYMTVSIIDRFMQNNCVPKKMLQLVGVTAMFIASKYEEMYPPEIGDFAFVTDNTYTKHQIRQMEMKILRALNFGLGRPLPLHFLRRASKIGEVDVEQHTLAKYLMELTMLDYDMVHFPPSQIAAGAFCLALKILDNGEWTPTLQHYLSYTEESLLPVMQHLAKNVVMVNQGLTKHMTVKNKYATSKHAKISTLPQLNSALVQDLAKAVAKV
Description: as §1, §2

[5] = target: cdk2/cyclinE (Homo sapiens, UniProt P24941); assay: Cyclin-Dependent Kinase Assay cdk2/cyclinE
Description: as §1, §2

[6] = 25 µM ATP, retinoblastoma substrate, read-out: IC50 (µM) cdk4/D
[7] = retinoblastoma substrate, read-out: IC50 (µM) cdk2/A
[8] = retinoblastoma substrate, read-out: IC50 (µM) cdkl/B
[9] = retinoblastoma substrate, read-out: IC50 (µM) cdk2/E

Sequence of cdk4/D (P11802 whole entry): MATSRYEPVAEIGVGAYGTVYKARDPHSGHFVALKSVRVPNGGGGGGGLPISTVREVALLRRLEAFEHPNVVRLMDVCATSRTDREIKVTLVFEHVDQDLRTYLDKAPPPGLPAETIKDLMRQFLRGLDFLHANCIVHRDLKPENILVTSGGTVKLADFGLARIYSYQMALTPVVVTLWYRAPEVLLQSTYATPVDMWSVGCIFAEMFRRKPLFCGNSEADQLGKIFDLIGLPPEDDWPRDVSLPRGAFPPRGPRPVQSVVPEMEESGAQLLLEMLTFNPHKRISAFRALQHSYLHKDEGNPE
Sequence of cdk4/D (P24385 whole entry, further chain): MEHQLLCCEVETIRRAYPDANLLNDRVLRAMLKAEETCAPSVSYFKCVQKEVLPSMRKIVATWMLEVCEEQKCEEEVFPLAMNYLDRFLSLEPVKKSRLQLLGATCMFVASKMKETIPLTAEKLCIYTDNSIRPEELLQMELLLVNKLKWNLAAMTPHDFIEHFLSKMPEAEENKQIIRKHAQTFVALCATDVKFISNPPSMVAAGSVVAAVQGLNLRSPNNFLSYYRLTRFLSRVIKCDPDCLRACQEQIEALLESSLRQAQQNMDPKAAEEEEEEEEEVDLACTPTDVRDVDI

| SMILES | IC50 [1] | IC50 [3] | IC50 [4] | IC50 [5] | also measured |
| --- | --- | --- | --- | --- | --- |
| COc1ccc(Nc2ncc3c(n2)N(C2CCCC2)C(=O)NC3)cc1 [Example 9, 1-Cyclopentyl-7-(4-methoxyphenylamino)-3,4-dihydro-pyrimido[4,5-d]pyrimidin-2(1H)-one] | 5.75 µM |  |  |  | IC50 [2]: 0.36 µM |
| CCN(CC)CCOc1ccc(Nc2ncc3c(n2)N(C2CCCC2)C(=O)NC3)cc1C [Example 13, 1-Cyclopentyl-7-{3-methyl-4-[2-(diethylamino)ethoxy]phenylamino}-3,4-dihydro-pyrimido[4,5-d]pyrimidin-2(1H)-one] | 0.3 µM |  |  |  | IC50 [2]: 0.05 to 0.5 µM |
| O=C1NCc2cnc(Nc3ccc(N4CCC(CCCO)CC4)cc3)nc2N1C1CCCC1 [Example 20, 1-Cyclopentyl-7-{4-[4-(3-hydroxypropyl)piperidin-1-yl]phenylamino}-3,4-dihydro-pyrimido[4,5-d]pyrimidin-2(1H)-one] | 0.42 µM | 2.72 µM | > 40 µM | 5.35 µM |  |
| CC(C)N1C(=O)NCc2cnc(Nc3ccc(N4CCC(O)CC4)cc3)nc21 [Example 23, 7-[4-(4-Hydroxypiperidin-1-yl)phenylamino]-1-isopropyl-3,4-dihydropyrimido[4,5-d]pyrimidin-2(1H)-one] |  | 4.39 µM | > 40 µM | 16.8 µM |  |
| CC(C)N1C(=O)NCc2cnc(Nc3ccc(N4CCC(N(C)C)CC4)cc3)nc21 [Example 24, 7-{4-[4-(Dimethylamino)piperidin-1-yl]phenylamino}-1-isopropyl-3,4-dihydro-pyrimido[4,5-d]pyrimidin-2(1H)-one; compound with trifluoroacetic acid] |  | 12.3 µM | > 40 µM | 34 µM |  |
| CC(C)N1C(=O)NCc2cnc(Nc3ccc(-n4cccn4)cc3)nc21 [Example 25, 1-Isopropyl-7-[4-(pyrazol-1-yl)phenylamino]-3,4-dihydro-pyrimido[4,5-d]pyrimidin-2(1H)-one; compound with trifluoroacetic acid] |  | 2.31 µM | 36.5 µM | 10 µM |  |
| CC(C)N1C(=O)NCc2cnc(Nc3ccc(N4CCC(CCCN5CCOCC5)CC4)cc3)nc21 [Example 26, 1-Isopropyl-7-{4-[4-(3-(morpholin-1-yl)propyl)piperidin-1-yl]phenylamino}-3,4-dihydro-pyrimido[4,5-d]pyrimidin-2(1H)-one] |  |  |  |  | inhibition at 40 µM ([1]; read-out: % Inhibition at 40 µM cdk4/D): 47% |
| CN1CCN(c2ccc(Nc3ncc4c(n3)N(C)C(=O)NC4)cc2)CC1 [Example 28, 1-Methyl-7-[4-(4-methylpiperazin-1-yl)phenylamino]-3,4-dihydropyrimido[4,5-d]pyrimidin-2(1H)-one; compound with trifluoroacetic acid] |  | > 40 µM | > 40 µM |  |  |
| CN1C(=O)NCc2cnc(Nc3ccc(N4CCC(O)CC4)cc3)nc21 [Example 29, 7-[4-(4-Hydroxypiperidin-1-yl)phenylamino]-1-methyl-3,4-dihydropyrimido[4,5-d]pyrimidin-2(1H)-one; compound with trifluoroacetic acid] | > 40 µM | > 40 µM | > 40 µM |  |  |
| CN1C(=O)NCc2cnc(Nc3ccc(N4CCC(N(C)C)CC4)cc3)nc21 [Example 30, 7-{4-[4-(Dimethylamino)piperidin-1-yl]phenylamino}-1-methyl-3,4-dihydropyrimido[4,5-d]pyrimidin-2(1H)-one; compound with trifluoroacetic acid] | 18.2 µM | > 40 µM | > 40 µM |  |  |
| CN1C(=O)NCc2cnc(Nc3ccc(-n4cccn4)cc3)nc21 [Example 31, 1-Methyl-7-[4-(pyrazol-1-yl)phenylamino]-3,4-dihydro-pyrimido[4,5-d]pyrimidin-2(1H)-one; compound with trifluoroacetic acid] |  | > 40 µM | > 40 µM |  |  |
| O=c1ncc2cnc(Nc3ccc(N4CCC(O)CC4)cc3)nc2n1C1CCCC1 [Example 33, 1-Cyclopentyl-7-[4-(4-hydroxypiperidin-1-yl)phenylamino]pyrimido[4,5-d]pyrimidin-2(1H)-one] |  |  |  |  | IC50 [1, 6]: 0.038 µM; IC50 [3, 7]: 0.98 µM; IC50 [4, 8]: 9.76 µM; IC50 [5, 9]: 4.2 µM |
| CCN(CC)CCOc1ccc(Nc2ncc3cnc(=O)n(C4CCCC4)c3n2)cc1C [Example 34, 1-Cyclopentyl-7-{3-methyl-4-[2-(diethylamino)ethoxy]-phenylamino}pyrimido[4,5-d]pyrimidin-2(1H)-one] | 0.079 µM | 3.22 µM | 7.51 µM | 3.15 µM |  |
| COc1ccc(Nc2ncc3cnc(=O)n(C4CCCC4)c3n2)cc1 [Example 37, 1-Cyclopentyl-7-(4-methoxyphenylamino)pyrimido[4,5-d]pyrimidin-2(1H)-one] | 0.22 µM | 0.4 µM | 4.76 µM | 0.9 µM |  |
| O=c1ncc2cnc(Nc3ccc(N4CCCCC4)cc3)nc2n1C1CCCC1 [Example 38, 1-Cyclopentyl-7-[4-(piperidin-1-yl)phenylamino]pyrimido[4,5-d]pyrimidin-2(1H)-one] |  |  |  |  | IC50 [1, 6]: 0.15 µM; IC50 [3, 7]: 0.77 µM; IC50 [4, 8]: 35.2 µM; IC50 [5, 9]: 2.78 µM |
| CC(C)n1c(=O)ncc2cnc(Nc3ccc(-n4cccn4)cc3)nc21 [Example 42, 1-Isopropyl-7-[4-(pyrazol-1-yl)phenylamino]pyrimido[4,5-d]pyrimidin-2(1H)-one] | 3.9 µM | 5.81 µM | > 40 µM | > 40 µM |  |
| CN1CCN(c2ccc(Nc3ncc4cnc(=O)n(C)c4n3)cc2)CC1 [Example 45, 1-Methyl-7-[4-(4-methylpiperazin-1-yl)phenylamino]pyrimido[4,5-d]pyrimidin-2(1H)-one] | 16.2 µM | > 40 µM | > 40 µM |  |  |
| CN(C)C1CCN(c2ccc(Nc3ncc4cnc(=O)n(C)c4n3)cc2)CC1 [Example 46, 7-{4-[4-(Dimethylamino)piperidin-1-yl]phenylamino}-1-methyl-pyrimido[4,5-d]pyrimidin-2(1H)-one] | > 40 µM | > 40 µM | > 40 µM |  | IC50 [2]: 22.6 µM |
| Cn1c(=O)ncc2cnc(Nc3ccc(-n4cccn4)cc3)nc21 [Example 47, 1-Methyl-7-[4-(pyrazol-1-yl)phenylamino]pyrimido[4,5-d]pyrimidin-2(1H)-one] | > 40 µM | > 40 µM | > 40 µM |  |  |
